Reference: EPA's CvTdb concentration-time database

Experiments:
Rat [1] = assay: concentration in plasma after dosing; conditions: dosed: 2-Hydroxy-4-methoxybenzophenone, 100 mg/kg, oral, Male, F344
Mouse [2] = assay: concentration in plasma after dosing; conditions: 0.25 h; dosed: 2-Hydroxy-4-methoxybenzophenone; 50 mg/kg; iv; Female; B6C3F1
Mouse [3] = assay: concentration in plasma after dosing; conditions: 3 h; dosed: 2-Hydroxy-4-methoxybenzophenone; 250 mg/kg; oral; Female; B6C3F1
Rat [4] = assay: concentration in plasma after dosing; conditions: dosed: 2-Hydroxy-4-methoxybenzophenone, 250 mg/kg, oral, Female, F344
Mouse [5] = assay: concentration in plasma after dosing; conditions: 3 h; dosed: 2-Hydroxy-4-methoxybenzophenone; 50 mg/kg; iv; Female; B6C3F1
Rat [6] = assay: concentration in plasma after dosing; conditions: dosed: 2-Hydroxy-4-methoxybenzophenone, 100 mg/kg, oral, Female, F344
Mouse [7] = assay: concentration in plasma after dosing; conditions: 3 h; dosed: 2-Hydroxy-4-methoxybenzophenone; 250 mg/kg; oral; Male; B6C3F1
Rat [8] = assay: concentration in plasma after dosing; conditions: dosed: 2-Hydroxy-4-methoxybenzophenone, 250 mg/kg, oral, Male, F344
Rat [9] = assay: concentration in plasma after dosing; conditions: 0.25 h; dosed: 2-Hydroxy-4-methoxybenzophenone; 500 mg/kg; oral; Male; F344
Rat [10] = assay: concentration in plasma after dosing; conditions: dosed: Nitrite, 20 mg/kg, iv, Male, F344
Rat [11] = assay: concentration in plasma after dosing; conditions: dosed: Nitrite, 80 mg/kg, oral, Female, F344
Rat [12] = assay: concentration in liver after dosing; conditions: 24 h; dosed: Perfluorooctanoic acid; 12 mg/kg; oral; Male; Harlan Sprague Dawley
Rat [13] = assay: concentration in liver after dosing; conditions: 6 h; dosed: Fluorotelomer alcohol 8+2; 24 mg/kg; oral; Male; Harlan Sprague Dawley
Rat [14] = assay: concentration in liver after dosing; conditions: 6 h; dosed: Perfluorooctanoic acid; 12 mg/kg; oral; Male; Harlan Sprague Dawley
Rat [15] = assay: concentration in plasma after dosing; conditions: dosed: 678-39-7, 12 mg/kg, iv, Male, F344
Rat [16] = assay: concentration in liver after dosing; conditions: 1 h; dosed: Potassium Perfluorobutane Sulfonate; 20 mg/kg; oral; Male; Harlan Sprague Dawley
Rat [17] = assay: concentration in liver after dosing; conditions: 3 h; dosed: Potassium Perfluorobutane Sulfonate; 20 mg/kg; oral; Female; Harlan Sprague Dawley
Rat [18] = assay: concentration in liver after dosing; conditions: 3 h; dosed: Potassium Perfluorobutane Sulfonate; 20 mg/kg; oral; Female; Harlan Sprague Dawley; remark: listed apart in the source
Rat [19] = assay: concentration in plasma after dosing; conditions: 1.5 h; dosed: Potassium Perfluorobutane Sulfonate; 4 mg/kg; oral; Male; Harlan Sprague Dawley
Rat [20] = assay: concentration in plasma after dosing; conditions: dosed: Potassium Perfluorobutane Sulfonate, 4 mg/kg, iv, Male, F344
Rat [21] = assay: concentration in plasma after dosing; conditions: dosed: Potassium Perfluorobutane Sulfonate, 4 mg/kg, iv, Male, F344; remark: listed apart in the source
Rat [22] = assay: concentration in plasma after dosing; conditions: 1.5 h; dosed: Potassium Perfluorobutane Sulfonate; 4 mg/kg; iv; Male; F344
Rat [23] = assay: concentration in kidney after dosing; conditions: 3 h; dosed: Potassium Perfluorobutane Sulfonate; 20 mg/kg; oral; Male; Harlan Sprague Dawley
rat [24] = assay: concentration in adipose after dosing (ugEq/g tissue); conditions: dosed: benzo[a]pyrene, iv, male, Wistar
rat [25] = assay: amount in expired air after dosing (umol); conditions: dosed: methanol, 100 mg/kg, iv, male, CDF(F344)/CrlBR

COc1ccc(C(=O)c2ccccc2)c(O)c1 [2-Hydroxy-4-methoxybenzophenone]
concentration in plasma [ng/mL]
Conditions | Rat [1] | Rat [4] | Rat [6] | Rat [8]
0.25 h | 88.9 | – | – | –
3 h | – | 95.6 | 7.19 | 91.3
4 h | 26.1 | – | – | –
10 min | – | 26.9 | 38.2 | 357

Conditions | concentration in plasma [ng/mL]
Mouse [2] | 5560
Mouse [3] | 35.5
Mouse [5] | 149
Mouse [7] | 37.2
Rat [9] | 403

O=N[O-] [Nitrite]
concentration in plasma [ng/mL]
Conditions | 0.75 h | 1 h | 2 h | 2 min
Rat [10] | 2300 | – | – | 21300
Rat [11] | – | 32700 | 20600 | –

O=C(O)C(F)(F)C(F)(F)C(F)(F)C(F)(F)C(F)(F)C(F)(F)C(F)(F)F [Perfluorooctanoic acid]
Conditions | concentration in liver [ng/g]
Rat [12] | 62500
Rat [13] | 1350
Rat [14] | 63400

Rat [15]
Conditions | concentration in plasma [ng/mL]
1 h | 342
6 h | 463

O=S(=O)([O-])C(F)(F)C(F)(F)C(F)(F)C(F)(F)F.[K+] [Potassium Perfluorobutane Sulfonate]
Conditions | concentration in kidney [ng/g] | concentration in liver [ng/g] | concentration in plasma [ng/mL]
Rat [16] | – | 100000 | –
Rat [17] | – | 8410 | –
Rat [18] | – | 5050 | –
Rat [19] | – | – | 13500
Rat [22] | – | – | 17300
Rat [23] | 20700 | – | –

concentration in plasma [ng/mL]
Conditions | 0.75 h | 3 h | 5 min | 24 h
Rat [20] | – | 476 | 29200 | –
Rat [21] | 24500 | – | – | 575

c1ccc2c(c1)cc1ccc3cccc4ccc2c1c34 [benzo[a]pyrene]
concentration in adipose, rat [24]
Conditions | 2 mg/kg | 6 mg/kg | 15 mg/kg
0.5 h | 2.77 | 2.29 | 8.6
0.75 h | 2.4 | 4.54 | 13.4
1 h | 3.86 | 3.99 | 9.76
1.5 h | 2.58 | 5.25 | 14.8
2 h | 3.96 | 3.37 | 17.1
3 h | 3.29 | 2.88 | 19.8
4 h | 2.96 | 2.38 | 15.4
5 h | 3.03 | 3.88 | 27.8
5 min | 1.06 | 0.37 | 1.47
6 h | 2.28 | 4.26 | 15.1
8 h | 3.13 | 4.09 | 17.4
10 min | 1.22 | 0.81 | 2.73
20 min | 1.82 | 2.04 | 5.65
24 h | 1.38 | – | 11.1
32 h | 1.46 | 1.02 | 5.85

CO [methanol]
rat [25]
Conditions | amount in expired air
0.5482 h | 3.95
1.003 h | 4.75
1.458 h | 5.56
1.963 h | 7.78
2.999 h | 10.5
4.439 h | 14.9
5.98 h | 17.6
8.026 h | 18.8
10.01 h | 19.4
12.02 h | 20.1
15.07 h | 19.5
